In ChEMBL document CHEMBL1949512, “RO4383596, an orally active KDR, FGFR, and PDGFR inhibitor: synthesis and biological evaluation” (Bioorg Med Chem, 2005) one finds IC50 data, which are given here for one molecule.

SMILES strings stand for the structures.

Assay [1] addresses Platelet-derived growth factor receptor (Homo sapiens, UniProt P09619+P16234). Description: Inhibition of human recombinant His-tagged intracellular domain of PDGFR using biotin-EEEEYFELV as substrate by HTRF assay.
For the next assay, the target named is T1, Ephrin type-B receptor 3 (Homo sapiens, UniProt P54753).
T1 sequence (P54753 whole entry): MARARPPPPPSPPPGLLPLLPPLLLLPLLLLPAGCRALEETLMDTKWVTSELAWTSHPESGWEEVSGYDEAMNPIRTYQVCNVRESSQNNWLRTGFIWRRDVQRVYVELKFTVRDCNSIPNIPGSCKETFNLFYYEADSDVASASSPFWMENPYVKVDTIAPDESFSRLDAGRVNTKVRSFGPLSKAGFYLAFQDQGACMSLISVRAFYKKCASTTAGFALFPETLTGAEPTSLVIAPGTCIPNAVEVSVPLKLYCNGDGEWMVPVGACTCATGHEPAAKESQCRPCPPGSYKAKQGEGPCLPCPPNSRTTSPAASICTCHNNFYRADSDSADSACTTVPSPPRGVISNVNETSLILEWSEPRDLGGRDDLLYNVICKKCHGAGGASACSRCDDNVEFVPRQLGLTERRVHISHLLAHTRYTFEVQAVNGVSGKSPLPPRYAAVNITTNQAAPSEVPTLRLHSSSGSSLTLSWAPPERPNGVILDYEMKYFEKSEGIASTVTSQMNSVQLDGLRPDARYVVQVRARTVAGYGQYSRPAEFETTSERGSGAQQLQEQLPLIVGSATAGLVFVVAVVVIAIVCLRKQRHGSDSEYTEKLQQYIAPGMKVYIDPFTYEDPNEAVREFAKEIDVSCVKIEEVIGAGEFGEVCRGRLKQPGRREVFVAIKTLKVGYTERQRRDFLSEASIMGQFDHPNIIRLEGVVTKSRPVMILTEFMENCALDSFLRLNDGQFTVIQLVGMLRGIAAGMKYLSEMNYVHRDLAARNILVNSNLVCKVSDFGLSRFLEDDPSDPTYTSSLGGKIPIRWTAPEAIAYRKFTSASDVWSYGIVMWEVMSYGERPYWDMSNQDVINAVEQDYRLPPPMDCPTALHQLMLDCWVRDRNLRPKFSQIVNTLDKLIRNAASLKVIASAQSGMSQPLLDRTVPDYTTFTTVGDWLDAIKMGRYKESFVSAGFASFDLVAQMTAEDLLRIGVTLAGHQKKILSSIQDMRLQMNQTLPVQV
In words: Inhibition of EphB3.

As usually defined, the IC50 is the concentration at which inhibition is half-maximal.

`COc1ccc(N2Cc3cnc(Nc4ccccc4)nc3N([C@@H]3CC[C@@H](O)C3)C2=O)cc1` (racemic): the IC50 was 33 nM in assay [1] and 1090 nM at Ephrin type-B receptor 3.
